Some test systems named below: MDA-MB-468 breast; 786-0 renal; A498 renal; A549 NSCLC; ACHN renal; BT-549 breast; CAKI-1 renal; CCRF-CEM leukemia; COLO 205 colon; DU-145 prostate; EKVX NSCLC; HCC-2998 colon; HCT-116 colon; HCT-15 colon; HL-60(TB) leukemia; HOP-92 NSCLC; HS 578T breast; HT29 colon; IGROV1 ovarian; K-562 leukemia; KM12 colon; LOX IMVI melanoma; M14 melanoma; MALME-3M melanoma; MCF7 breast; MDA-MB-231 breast; MDA-MB-435; MOLT-4 leukemia; NCI-H226 lung; NCI-H23 lung; NCI-H460 lung; NCI-H522 lung; NCI/ADR-RES ovarian; OVCAR-3 ovarian; OVCAR-4 ovarian; OVCAR-5 ovarian; OVCAR-8 ovarian; PC-3 prostate; RPMI-8226 leukemia; RXF 393 renal; SF-268 CNS; SF-295 CNS; SF-539 CNS; SK-MEL-2 melanoma; SK-MEL-28 melanoma; SK-MEL-5 melanoma; SK-OV-3 ovarian; SN12C renal; SNB-19 CNS; SNB-75 CNS; SW-620 colon; T-47D breast; TK-10 renal; U251 CNS; UACC-257 melanoma; UACC-62 melanoma; UO-31 renal.

What all share (test): NCI anticancer screen, dose series, 48 h

Where “and” joins values, the source holds several entries; their conditions need not be identical. Equal entries are not always repeated.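 Interpolation was linear, between the two tested concentrations surrounding the appropriate level; five concentrations were tested over 48 hours in 96-well plates. At the GI50, growth is halved. TGI is the concentration that stops growth completely.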

`O=C(/C=C/C12c3ccccc3C(c3ccccc31)C1C(=O)NC(=O)C12)c1ccc(Cl)cc1Cl` (stereo not drawn): in the experiment with MDA-MB-468 breast, the GI50 is 1.96 µM and the TGI came to 4.13 µM.

For `CCOC(=O)C(Cc1c[nH]c2c(N(CCO)CCO)cccc12)(NC(C)=O)C(=O)OCC`, the TGI in the experiment with MDA-MB-468 breast is 132 µM.

For `CC(=O)Oc1ccc(C23c4ccccc4C2(OC(C)=O)c2cc(OC(C)=O)ccc23)cc1` (stereo not drawn), in the experiment with MDA-MB-468 breast, the GI50 is 0.57 µM and the TGI worked out at 5.02 µM.

Consider `Cc1ncc(C(=O)Nc2ccc(CN3CCN(C)CC3)c(C(F)(F)F)c2)cc1C#Cc1cnc2cccnn12`, for which, in the experiment on MDA-MB-468 breast, the GI50 is 1.11 µM and the TGI came out at 3.41 µM.

Consider `O=C(/C=C/c1ccccc1)C(Br)C(Br)c1ccccc1` (stereo not drawn), for which, in the experiment with MDA-MB-468 breast, the GI50 was 1.31 µM and the TGI worked out at 3.48 µM.

As for `O=C1/C(=C/c2cccc(Br)c2)COc2ccc(O)cc21`, in the experiment on MDA-MB-468 breast, the GI50 was 1.75 µM and the TGI stood at 4.33 µM.

Consider `COc1ccc(-c2cs/c(=N\N=C\c3ccc(O)cc3O)n2/N=C/c2ccc(O)cc2O)cc1`, for which, in the experiment on MDA-MB-468 breast, the GI50 was 1.96 µM and the TGI was 5.68 µM.

With `CC(C)Nc1cc(-c2c[nH]c(C(=O)N[C@H](CO)c3cccc(Cl)c3)c2)c(Cl)cn1`, in the experiment on MDA-MB-468 breast, the GI50 is 3.54 µM and 5.12 µM; the TGI was 18.3 µM and > 10 µM.

Regarding `COc1ccc(-c2ccncc2)cc1C(N)=O`, in the experiment on MDA-MB-468 breast, the GI50 is more than 25 µM and the TGI is more than 25 µM.

With `COc1ccc(NC(=O)CSc2nnc(-c3ccc(-c4nc5ccccc5[nH]4)cc3)o2)cc1`, the GI50 in the experiment with 786-0 renal was 1.92 µM; in the experiment with A498 renal it was 2.1 µM; with A549 NSCLC, 1.97 µM; with ACHN renal, 2.4 µM; in the experiment with BT-549 breast it was 1.94 µM; in the experiment with CAKI-1 renal it was 1.89 µM. Moreover, the GI50 in the experiment with CCRF-CEM leukemia was 3.03 µM; in the experiment on COLO 205 colon, 4.51 µM; with DU-145 prostate it was 2.77 µM; with EKVX NSCLC, 1.98 µM; with HCC-2998 colon, 12.1 µM; in the experiment on HCT-116 colon, 2.38 µM. In addition, the GI50 is 2.3 µM in the experiment on HCT-15 colon; 5.04 µM in the experiment on HL-60(TB) leukemia; 1.77 µM with HOP-92 NSCLC; 2.56 µM in the experiment with HS 578T breast; 1.82 µM with HT29 colon; 2.17 µM with IGROV1 ovarian. Besides, the GI50 in the experiment on K-562 leukemia was 3.65 µM; in the experiment on KM12 colon, 3.49 µM; in the experiment on LOX IMVI melanoma, 1.81 µM; with M14 melanoma, 2.3 µM; in the experiment on MALME-3M melanoma, 1.69 µM; in the experiment with MCF7 breast, 2.35 µM. The GI50 in the experiment with MDA-MB-231 breast was 1.89 µM; in the experiment on MDA-MB-435, 2.08 µM; in the experiment on MDA-MB-468 breast, 2.51 µM; in the experiment with MOLT-4 leukemia, 3.23 µM; in the experiment on NCI-H226 lung, 1.92 µM; in the experiment with NCI-H23 lung, 1.93 µM. Further, the GI50 was 2.01 µM in the experiment with NCI-H460 lung; 1.72 µM in the experiment on NCI-H522 lung; 9.32 µM in the experiment with NCI/ADR-RES ovarian; 2.29 µM with OVCAR-3 ovarian; 2.5 µM with OVCAR-4 ovarian; 2.28 µM in the experiment on OVCAR-5 ovarian. Further, the GI50 is 1.85 µM in the experiment with OVCAR-8 ovarian; 2.06 µM in the experiment on PC-3 prostate; 3.42 µM with RPMI-8226 leukemia; 1.84 µM in the experiment on RXF 393 renal; 2.02 µM in the experiment with SF-268 CNS; 1.79 µM with SF-295 CNS. Besides, the GI50 was 1.79 µM with SF-539 CNS; 2.07 µM in the experiment on SK-MEL-2 melanoma; 1.76 µM in the experiment with SK-MEL-28 melanoma; 1.91 µM in the experiment with SK-MEL-5 melanoma; 2.36 µM in the experiment on SK-OV-3 ovarian; 1.84 µM in the experiment with SN12C renal. The GI50 in the experiment with SNB-19 CNS is 2.04 µM; in the experiment with SNB-75 CNS it was 1.83 µM; in the experiment on SW-620 colon, 2.34 µM; with T-47D breast it was 3.1 µM; in the experiment with TK-10 renal, 3.09 µM; with U251 CNS it was 1.83 µM. For the same compound, the GI50 in the experiment on UACC-257 melanoma is 1.92 µM; in the experiment with UACC-62 melanoma, 1.63 µM; in the experiment on UO-31 renal it was 2.8 µM. The TGI was determined as 3.63 µM with 786-0 renal; 5.75 µM with A498 renal; 4.22 µM in the experiment on A549 NSCLC; 5.86 µM with ACHN renal; 4.09 µM in the experiment with BT-549 breast; 3.83 µM in the experiment on CAKI-1 renal. Besides, the TGI with CCRF-CEM leukemia is more than 100 µM; in the experiment on COLO 205 colon it was 19.3 µM; in the experiment with DU-145 prostate, 7.62 µM; in the experiment with EKVX NSCLC it was 4.21 µM; with HCC-2998 colon, 34.6 µM; in the experiment on HCT-116 colon it was 5.9 µM. Moreover, the TGI in the experiment on HCT-15 colon was 5.67 µM; in the experiment with HL-60(TB) leukemia it was more than 100 µM; in the experiment on HOP-92 NSCLC, 3.79 µM; with HS 578T breast, 7.29 µM; in the experiment with HT29 colon, 3.42 µM; with IGROV1 ovarian, 5.06 µM. Further, the TGI in the experiment with K-562 leukemia was more than 100 µM; with KM12 colon it was 13.3 µM; with LOX IMVI melanoma, 3.38 µM; in the experiment with M14 melanoma it was 5.27 µM; in the experiment on MALME-3M melanoma it was 3.14 µM; in the experiment with MCF7 breast, 6.4 µM. Moreover, the TGI with MDA-MB-231 breast was 3.45 µM; with MDA-MB-435 it was 4.55 µM; with MDA-MB-468 breast, 6.44 µM; with MOLT-4 leukemia it was more than 100 µM; with NCI-H226 lung, 4.17 µM; in the experiment with NCI-H23 lung it was 3.84 µM. The TGI was 4.32 µM in the experiment with NCI-H460 lung; 3.4 µM in the experiment on NCI-H522 lung; more than 100 µM with NCI/ADR-RES ovarian; 4.56 µM in the experiment with OVCAR-3 ovarian; 6.64 µM in the experiment on OVCAR-4 ovarian; 5.23 µM in the experiment on OVCAR-5 ovarian. In addition, the TGI in the experiment with OVCAR-8 ovarian was 3.66 µM; in the experiment with PC-3 prostate, 3.96 µM; with RPMI-8226 leukemia, more than 100 µM; in the experiment with RXF 393 renal, 3.56 µM; with SF-268 CNS, 4.2 µM; in the experiment with SF-295 CNS it was 3.34 µM. The TGI in the experiment on SF-539 CNS is 3.42 µM; in the experiment on SK-MEL-2 melanoma, 4.45 µM; in the experiment with SK-MEL-28 melanoma, 3.21 µM; in the experiment with SK-MEL-5 melanoma, 3.94 µM; with SK-OV-3 ovarian, 4.94 µM; in the experiment on SN12C renal, 3.59 µM. The TGI with SNB-19 CNS stood at 4.04 µM; in the experiment with SNB-75 CNS it was 3.89 µM; in the experiment on SW-620 colon it was 6.39 µM; with T-47D breast, 9.51 µM; in the experiment with TK-10 renal, 10.8 µM; in the experiment with U251 CNS, 3.36 µM. Besides, the results for the TGI in the experiment on UACC-257 melanoma, in the experiment with UACC-62 melanoma and in the experiment on UO-31 renal were 3.93 µM, 3.04 µM and 10.4 µM, respectively.

In the case of `C[C@@H]1C[C@H](C)CN(S(=O)(=O)c2ccc3c(NO)c4ccc(S(=O)(=O)N5C[C@H](C)C[C@H](C)C5)cc4c(N=O)c3c2)C1`, in the experiment with MDA-MB-468 breast, the GI50 is 0.154 µM and the TGI was 0.312 µM.

(Values after PubChem BioAssay (NCI).)
